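48-hour exposure; five concentrations; linearly interpolated endpoints. GI50 = concentration required for 50% inhibition of growth.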 Active and inactive are the calls of the source. Cut-off read from the data, not from the text of the source: active = GI50 up to about 1.1 µM and inactive = higher.
Key:
Experiment in all cases: NCI tumour cell line growth inhibition, 48 h
[1] = test system: ACHN
[2] = test system: IGROV-1
[3] = test system: SK-MEL-28
[4] = test system: NCI-H23
[5] = test system: MDA-MB-231
[6] = test system: DU-145
[7] = test system: SF-539
[8] = test system: M14
[9] = test system: CCRF-CEM
[10] = test system: SW-620
[11] = test system: HCC 2998
[12] = test system: SK-MEL-5
[13] = test system: MDA-MB-435
[14] = test system: UO-31
[15] = test system: PC-3
[16] = test system: SNB-19
[17] = test system: NCI-H460
[18] = test system: SR
[19] = test system: SN12C
[20] = test system: SK-OV-3

CCOC(=O)c1ccc(OCc2nc3cc(C(F)(F)F)ccc3nc2-c2ccccc2)cc1
GI50 [1]: > 100 µM (inactive)
GI50 [2]: > 100 µM (inactive)
GI50 [3]: > 100 µM (inactive)
GI50 [4]: > 100 µM (inactive)
GI50 [5]: > 100 µM (inactive)
GI50 [6]: > 100 µM (inactive)
GI50 [7]: > 100 µM (inactive)
GI50 [8]: > 100 µM (inactive)
GI50 [9]: > 100 µM (inactive)
GI50 [10]: > 100 µM (inactive)
GI50 [11]: > 100 µM (inactive)
GI50 [12]: 44 µM (inactive)
GI50 [13]: > 100 µM (inactive)
GI50 [14]: > 100 µM (inactive)
GI50 [15]: > 100 µM (inactive)
GI50 [16]: > 100 µM (inactive)
GI50 [17]: 97.9 µM (inactive)
GI50 [18]: 42.1 µM (inactive)
GI50 [19]: > 100 µM (inactive)

C[C@H]1CC[C@@H]2[C@@H](C)[C@H]3[C@H](C[C@H]4[C@@H]5CC=C6C[C@@H](O)CC[C@]6(C)[C@H]5C[C@H](O)[C@]34C)N2C1
GI50 [20]: > 100 µM (inactive)
GI50 [1]: > 100 µM (inactive)
GI50 [2]: > 100 µM (inactive)
GI50 [3]: > 100 µM (inactive)
GI50 [4]: > 100 µM (inactive)
GI50 [5]: > 100 µM (inactive)
GI50 [6]: > 100 µM (inactive)
GI50 [7]: > 100 µM (inactive)
GI50 [8]: > 100 µM (inactive)
GI50 [10]: > 100 µM (inactive)
GI50 [11]: > 100 µM (inactive)
GI50 [12]: > 100 µM (inactive)
GI50 [13]: > 100 µM (inactive)
GI50 [14]: > 100 µM (inactive)
GI50 [15]: > 100 µM (inactive)
GI50 [16]: > 100 µM (inactive)
GI50 [17]: > 100 µM (inactive)
GI50 [18]: > 100 µM (inactive)
GI50 [19]: > 100 µM (inactive)

CC(C)[C@H](NC(=O)[C@@H](O)[C@H](N)Cc1ccccc1)C(=O)N[C@@H](Cc1ccccc1)C(=O)O
GI50 [20]: > 100 µM (inactive)
GI50 [1]: > 100 µM (inactive)
GI50 [2]: > 100 µM (inactive)
GI50 [3]: > 100 µM (inactive)
GI50 [4]: > 100 µM (inactive)
GI50 [5]: > 100 µM (inactive)
GI50 [6]: > 100 µM (inactive)
GI50 [8]: > 100 µM (inactive)
GI50 [9]: > 100 µM (inactive)
GI50 [10]: > 100 µM (inactive)
GI50 [11]: > 100 µM (inactive)
GI50 [12]: > 100 µM (inactive)
GI50 [13]: > 100 µM (inactive)
GI50 [14]: > 100 µM (inactive)
GI50 [15]: > 100 µM (inactive)
GI50 [16]: > 100 µM (inactive)
GI50 [17]: > 100 µM (inactive)
GI50 [18]: > 100 µM (inactive)
GI50 [19]: > 100 µM (inactive)

Cc1cn2c(/C=N/NC(=N)N)c(-c3cccc([N+](=O)[O-])c3)nc2s1
GI50 [1]: 1.67 µM (inactive)
GI50 [2]: 5.56 µM (inactive)
GI50 [3]: 1.29 µM (inactive)
GI50 [4]: 2.39 µM (inactive)
GI50 [5]: 1.41 µM (inactive)
GI50 [6]: 1.74 µM (inactive)
GI50 [7]: 1.98 µM (inactive)
GI50 [8]: 1.85 µM (inactive)
GI50 [9]: 0.532 µM (active)
GI50 [10]: 0.661 µM (active)
GI50 [11]: 0.839 µM (active)
GI50 [12]: 1.63 µM (inactive)
GI50 [13]: 1.82 µM (inactive)
GI50 [14]: 5.62 µM (inactive)
GI50 [15]: 1.74 µM (inactive)
GI50 [17]: 2.01 µM (inactive)
GI50 [18]: 1.77 µM (inactive)
GI50 [19]: 1.71 µM (inactive)

CC1(C)OCC(/C=C\C(O)CC2(C)OCCO2)CO1 (stereo not given)
GI50 [20]: > 100 µM (inactive)
GI50 [1]: > 100 µM (inactive)
GI50 [2]: > 100 µM (inactive)
GI50 [3]: > 100 µM (inactive)
GI50 [5]: > 100 µM (inactive)
GI50 [6]: > 100 µM (inactive)
GI50 [7]: > 100 µM (inactive)
GI50 [8]: > 100 µM (inactive)
GI50 [10]: > 100 µM (inactive)
GI50 [11]: > 100 µM (inactive)
GI50 [12]: > 100 µM (inactive)
GI50 [13]: > 100 µM (inactive)
GI50 [14]: > 100 µM (inactive)
GI50 [15]: > 100 µM (inactive)
GI50 [16]: > 100 µM (inactive)
GI50 [17]: > 100 µM (inactive)
GI50 [18]: > 100 µM (inactive)
GI50 [19]: > 100 µM (inactive)

COc1ccccc1NC(=O)C(=O)Cc1cnc2ccccc2n1
GI50 [20]: > 100 µM (inactive)
GI50 [1]: > 100 µM (inactive)
GI50 [3]: > 100 µM (inactive)
GI50 [4]: > 100 µM (inactive)
GI50 [5]: > 100 µM (inactive)
GI50 [6]: > 100 µM (inactive)
GI50 [7]: > 100 µM (inactive)
GI50 [8]: > 100 µM (inactive)
GI50 [9]: > 100 µM (inactive)
GI50 [10]: > 100 µM (inactive)
GI50 [11]: > 100 µM (inactive)
GI50 [12]: > 100 µM (inactive)
GI50 [13]: > 100 µM (inactive)
GI50 [14]: > 100 µM (inactive)
GI50 [15]: > 100 µM (inactive)
GI50 [16]: > 100 µM (inactive)
GI50 [17]: > 100 µM (inactive)
GI50 [18]: > 100 µM (inactive)
GI50 [19]: > 100 µM (inactive)

CCOC(=O)c1ccc(/N=C2/C(=S)N(c3ccc(C(=O)OCC)cc3)C(=N)N2/N=C/c2ccccc2)cc1
GI50 [20]: 24.1 µM (inactive)
GI50 [2]: 30.6 µM (inactive)
GI50 [3]: > 10 µM (inactive)
GI50 [4]: > 10 µM (inactive)
GI50 [5]: 8.05 µM (inactive)
GI50 [6]: 37.3 µM (inactive)
GI50 [7]: 20.1 µM (inactive)
GI50 [8]: 11.8 µM (inactive)
GI50 [10]: 1.51 µM (inactive)
GI50 [11]: 21.8 µM (inactive)
GI50 [12]: 3.37 µM (inactive)
GI50 [13]: > 10 µM (inactive)
GI50 [14]: 13.2 µM (inactive)
GI50 [15]: 2.61 µM (inactive)
GI50 [16]: 14.3 µM (inactive)
GI50 [17]: 15.5 µM (inactive)
GI50 [18]: 3.52 µM (inactive)
GI50 [19]: 17.9 µM (inactive)

— ChEMBL document CHEMBL1201862, “PubChem BioAssay data set” (2004)
